Results from the Deep4Chem optical property database.
“And” between values parts separate entries of the source, which are not always exact repeats. Identical values can stand only once. One block for each molecule: values may come before it.

Experiment: solvent given as SMILES

- emission maximum (in CC#N): 489 nm
Compound: COc1cc2cc(/C=C/c3ccc(/C=C/c4ccc(/C=C(\C#N)C(=O)O)cc4)cc3)c(=O)oc2cc1OC

- emission maximum (in ClC(Cl)Cl): 708 nm
Compound: CN1C(=CC2=C([O-])C(=Cc3sc4ccccc4[n+]3C)C2=C(C#N)C#N)C(C)(C)c2ccccc21

- emission maximum (in CC#N): 574 nm
- emission maximum (in ClCCl): 572 nm
Compound: COc1ccc2nc(/N=N/c3ccc(N(C)C)cc3)sc2c1

- emission maximum (in ClC(Cl)Cl): 670 nm
Compound: Cc1cccc(C)c1-c1cc2c(C)c3c4ccc5nc6c(ccc7c8c(C)c9cc(-c%10c(C)cccc%10C)c(-c%10c(C)cccc%10C)cc9c(C)c8c76)nc5c4c3c(C)c2cc1-c1c(C)cccc1C

- emission maximum (in CC#N): 387 nm
- emission maximum (in CO): 386.5 nm
Compound: c1ccc(-c2nc(-c3ccccc3)c(-c3ccccc3)[nH]2)cc1

Compound: c1ccc(-c2ccc(-c3nc(-n4c5ccccc5c5ccc6c7ccccc7n(-c7ccccc7)c6c54)nc(-n4c5ccccc5c5ccc6c7ccccc7n(-c7ccccc7)c6c54)n3)cc2)cc1
- emission maximum (in Cc1ccccc1): 495 nm
- emission maximum (in O=P(c1ccccc1)(c1ccccc1)c1ccccc1Oc1ccccc1P(=O)(c1ccccc1)c1ccccc1): 492 nm

- emission maximum (in ClCCl): 506 nm
Compound: CCN(CC)c1ccc2c(c1)oc(=O)c1cc3c(-c4ccccc4)nn(C)c3nc12

- emission maximum (in C1CCCCC1): 421 nm
- emission maximum (in CC#N): 432 nm
- emission maximum (in CO): 428 nm
- emission maximum (in ClCCl): 431 nm
Compound: COc1c2ccccc2c(OC)c2c1c1cc(Cl)ccc1n2C

Compound: CC1=CC(C)=[N+]2C1=C(c1ccccc1)c1c(C)c(-c3cccs3)c(C)n1[B-]2(F)F
- emission maximum (in CO): 600 nm
- emission maximum (in Cc1ccccc1): 591 nm
- emission maximum (in ClCCl): 594 nm

- emission maximum (in C1CCOC1): 557 nm
- emission maximum (in CC#N): 617 nm
- emission maximum (in CCCCCCC): 480 nm
- emission maximum (in CS(C)=O): 626 nm
- emission maximum (in ClCCl): 583 nm
Compound: C(=C\c1cnc2ccccc2n1)/c1ccc(N2CCCCC2)cc1

Compound: C1=C(c2ccc(-c3cccs3)s2)CCC(c2ccccc2)C1 (configuration not stated)
- emission maximum (in C1CCOC1): 412 nm
- emission maximum (in CC#N): 411 nm
- emission maximum (in CCCCCC): 409 nm
- emission maximum (in CCO): 411 nm
- emission maximum (in OCCOCCO): 412 nm
- emission maximum (in c1ccncc1): 417 nm

- emission maximum (in CCO): 540 nm
- emission maximum (in ClCCl): 535 nm
- emission maximum (in O): 557 nm
Compound: O=Cc1ccc(-c2ccc(-c3nc4ccccc4s3)c(O)c2)s1

- emission maximum (in ClCCl): 575 nm
Compound: O=[N+]([O-])c1ccc([N+]2=CC3=C(O[B-]2(F)F)c2ccccc2SC3)cc1

Compound: O=P1(c2ccccc2)C2=C(c3ccccc31)C(c1ccccc1)(c1ccccc1)c1cc(N(c3ccccc3)c3ccccc3)ccc12 (configuration not stated)
- emission maximum (in CC#N): 594 nm
- emission maximum (in CO): 608 nm
- emission maximum (in Cc1ccccc1): 522 nm

Compound: O=c1c2ccccc2oc2cc(N3c4ccccc4C4(c5ccccc5Oc5ccccc54)c4ccccc43)ccc12
- emission maximum (in Cc1ccccc1): 472 nm

- emission maximum (in CCO): 582 nm
- emission maximum (in ClCCl): 579 nm
Compound: Cc1ccccc1-c1c2ccc(=[N+]3CCOCC3)cc-2oc2cc(N3CCCCC3)ccc12

Compound: CCC1=C(C)C2=Cc3c4ccccc4c4n3[B-](c3ccc5cc6ccccc6cc5c3)(Oc3ccccc3-4)[N+]2=C1C (configuration not stated)
- emission maximum (in CC#N): 635 nm
- emission maximum (in CCCCCC): 636 nm
- emission maximum (in Cc1ccccc1): 641 nm
- emission maximum (in ClCCl): 639 nm

Compound: Cc1cc(C(F)(F)F)nc2c1ccc1nc(-c3ccc(Cl)cc3)cn12
- emission maximum (in CC#N): 463 nm
- emission maximum (in CCCCCC): 439 nm
- emission maximum (in CCCCOC(C)=O): 455 nm
- emission maximum (in CCOC(C)=O): 457 nm
- emission maximum (in CO): 459 nm
- emission maximum (in Cc1ccccc1): 455 nm
- emission maximum (in ClC(Cl)Cl): 452 nm
- emission maximum (in ClCCl): 455 nm
- emission maximum (in c1ccccc1): 455 nm

- emission maximum (in CC#N): 393 nm
- emission maximum (in CCCCOCCCC): 393 nm
- emission maximum (in CO): 392 nm
Compound: COc1nc(Nc2cc3ccc4cccc5ccc(c2)c3c45)nc(OC)n1

- emission maximum (in CO): 642 nm
- emission maximum (in ClC(Cl)Cl): 640 nm
Compound: CCCCCCCCCCN1C(=O)c2cc(NCCCOCCO)c3c4c(cc(NCCCOCCO)c(c24)C1=O)C(=O)N(CCCCCCCCCC)C3=O

Compound: CCC1(CC)c2cc(N(C)C)ccc2-c2ccc(C(F)(F)F)cc21
- emission maximum (in C1CCCCC1): 360 nm
- emission maximum (in CC#N): 337 nm
- emission maximum (in CCO): 388 nm
- emission maximum (in CCOCC): 373 nm
- emission maximum (in CS(C)=O): 414 nm
- emission maximum (in ClCCl): 387 nm
- emission maximum (in c1ccccc1): 374 nm

- emission maximum (in ClCCl): 560 nm
Compound: F[B-]1(F)n2c(Cl)c(Cl)c(Br)c2C(Cl)=C2C(Br)=C(Cl)C(Cl)=[N+]21

Compound: CC(C)(C)c1ccc2c3c(c4ccc(C(C)(C)C)cc4c2c1)=[N+]1C(=C(c2ccccc2)c2c(Br)c4c5ccc(C(C)(C)C)cc5c5cc(C(C)(C)C)ccc5c4n2[B-]1(F)F)C=3Br
- emission maximum (in C1CCCCC1): 711 nm
- emission maximum (in C1CCOC1): 715 nm
- emission maximum (in CC#N): 714 nm
- emission maximum (in Cc1ccccc1): 715 nm
- emission maximum (in ClCCl): 717 nm

Compound: Nc1ccc2c(c1)C(=O)O/C2=C\c1ccc(Cl)cc1
- emission maximum (in CC#N): 452.9 nm
- emission maximum (in CC(C)=O): 448.83 nm
- emission maximum (in CC(C)CO): 483.09 nm
- emission maximum (in CC(C)O): 484.97 nm
- emission maximum (in CCCO): 484.5 nm
- emission maximum (in CCO): 487.33 nm
- emission maximum (in CCOC(C)=O): 461.68 nm
- emission maximum (in CCOCC): 427.17 nm
- emission maximum (in CO): 492.13 nm

Compound: N#C/C(=C\c1cc(/C=C(\C#N)c2ccc(C(F)(F)F)cc2)c(-c2ccc(N(c3ccccc3)c3ccccc3)cc2)cc1-c1ccc(N(c2ccccc2)c2ccccc2)cc1)c1ccc(C(F)(F)F)cc1
- emission maximum (in C1CCCCC1): 478 nm
- emission maximum (in C1CCOC1): 587 nm
- emission maximum (in CCCCCC): 473 nm
- emission maximum (in CCOC(C)=O): 581 nm
- emission maximum (in Cc1ccccc1): 515 nm
- emission maximum (in ClC(Cl)Cl): 553 nm
- emission maximum (in ClCCl): 594 nm

- emission maximum (in ClC(Cl)Cl): 730 nm
Compound: COc1ccc2c(c1)CCc1c(-c3ccccc3)c3n(c1-2)[B-](F)(F)[N+]1=c2ccc4ccccc4c2=C(c2ccccc2)C1=N3

- emission maximum (in ClC(Cl)Cl): 582 nm
Compound: Cc1ccccc1CN(Cc1ccccc1C)c1nc(C#N)c(N(Cc2ccccc2C)Cc2ccccc2C)nc1C#N

Compound: N#Cc1c(-c2ccccc2)cc(-c2ccccc2)[nH]c1=S
- emission maximum (in C1CCCCC1): 510 nm
- emission maximum (in C1COCCO1): 512 nm
- emission maximum (in CC#N): 495 nm
- emission maximum (in CCCCO): 506 nm
- emission maximum (in CCCO): 493 nm
- emission maximum (in CCO): 465 nm
- emission maximum (in CCOC(C)=O): 502 nm
- emission maximum (in CCOCC): 518 nm
- emission maximum (in CN(C)C=O): 505 nm
- emission maximum (in ClC(Cl)(Cl)Cl): 510 nm

- emission maximum (in O): 414 nm
Compound: [O-]c1ccc2ccccc2c1

Compound: Cc1ccc(C2=C3C=c4c(oc5ccccc45)=[N+]3[B-](F)(F)n3c2cc2c4ccccc4oc23)cc1
- emission maximum (in C1CCCCC1): 596.5 nm
- emission maximum (in C1CCOC1): 596.5 nm
- emission maximum (in CC#N): 595.5 nm
- emission maximum (in CCOC(C)=O): 594.5 nm
- emission maximum (in CN(C)C=O): 598.5 nm
- emission maximum (in CO): 594.5 nm
- emission maximum (in Cc1ccccc1): 603 nm
- emission maximum (in ClCCl): 599 nm and 597 nm

- emission maximum (in O): 366 nm
Compound: Cn1ccc(-n2cncn2)nc1=O

Compound: N#Cc1c(-n2c3ccccc3c3ccccc32)cc(N2c3ccccc3C(c3ccccc3)(c3ccccc3)c3ccccc32)cc1-n1c2ccccc2c2ccccc21
- emission maximum (in Cc1ccccc1): 471 nm

- emission maximum (in ClC(Cl)Cl): 348 nm
Compound: C(#Cc1ccc(C#Cc2ccccc2)cc1)c1ccccc1

- emission maximum (in ClCCl): 388 nm
Compound: CC(C)(C)NC(=O)c1ccc(Br)c2ccc3c4ccccc4c4ccccc4c3c12

- emission maximum (in ClC(Cl)Cl): 423 nm
Compound: CCCCCCCCCCCCc1sc(CCCCCC)c2c3cc(CCCCCC)sc3c3sc(CCCCCC)cc3c12

- emission maximum (in CCOC(C)=O): 438 nm
Compound: O=Cc1cc2c(cc3ccc4cccc5ccc2c3c45)[nH]1

Compound: CCC1=C(C)C2=Cc3c(I)c(I)c(I)n3[B-](F)(F)[N+]2=C1C
- emission maximum (in C1CCCCC1): 551.5 nm
- emission maximum (in CC(C)=O): 553 nm
- emission maximum (in CCO): 557 nm
- emission maximum (in CCOC(C)=O): 553.5 nm
- emission maximum (in CO): 554 nm
- emission maximum (in OCC(F)(F)F): 550.5 nm

Compound: c1ccc(-c2nc(-c3ccccc3)nc(-c3ccc(-n4c5ccccc5c5cc(-n6c7ccccc7c7ccccc76)ccc54)c4c5ccccc5n(-c5ccccc5)c34)n2)cc1
- emission maximum (in C1CCOC1): 496.59 nm
- emission maximum (in Cc1ccccc1): 429 nm
- emission maximum (in ClCCl): 531.36 nm

Compound: CCCCCCc1ccc2c3c(ccc2c1)O[B-](c1ccccc1)(c1ccccc1)[N+](c1ccc([N+]2=Cc4c(ccc5cc(CCCCCC)ccc45)O[B-]2(c2ccccc2)c2ccccc2)cc1)=C3
- emission maximum (in C1CCOC1): 568 nm
- emission maximum (in CC#N): 561 nm
- emission maximum (in Cc1ccccc1): 569 nm
- emission maximum (in ClCCl): 568 nm

- emission maximum (in CCO): 644 nm
- emission maximum (in O): 652 nm
Compound: CC/[NH+]=c1\cc2oc3cc(NCCC(=O)NC(CCC(=O)OC)C(=O)OC)c4ccccc4c3nc-2cc1C (configuration not stated)

- emission maximum (in ClC(Cl)Cl): 661 nm
Compound: CCCCCCCCCCCCOc1cc2c3cc(OCCCCCCCCCCCC)c(OCCCCCCCCCCCC)cc3c3c(cc(OCCCCCCCCCCCC)c4nc5cc(C#Cc6ccc(OCCCC)cc6)c(C#Cc6ccc(OCCCC)cc6)cc5nc43)c2cc1OCCCCCCCCCCCC

Compound: COc1cc(/C=C/c2ccccn2)c(OC)cc1C=O
- emission maximum (in C1CCOC1): 446 nm
- emission maximum (in CC#N): 458 nm
- emission maximum (in CN(C)C=O): 456 nm
- emission maximum (in Cc1ccccc1): 444 nm
- emission maximum (in ClCCl): 455 nm

- emission maximum (in ClC(Cl)Cl): 774 nm
Compound: CCc1c(CC)c2n(c1C)[B-](F)(F)[N+]1=C(C)c3cc4c(cc3C1=C2)=[N+]1C(=Cc2c(CC)c(CC)c(C)n2[B-]1(F)F)C=4C

- emission maximum (in ClCCl): 601 nm
Compound: CN(C)c1ccc(C2=C3C=C(c4ccc(C#N)cc4)S[C@]34c3ccccc3[C@H]2c2ccccc24)cc1

- emission maximum (in ClCCl): 566 nm
Compound: CC1=C(c2ccccc2)C(C)=[N+]2C1=C(c1c(-c3ccccn3)nc3ccccn13)c1c(C)cc(C)n1[B-]2(F)F

- emission maximum (in CC#N): 532 nm
Compound: Cc1cccc2nc3c(=O)n(C)c(=O)nc-3n(C)c12

- emission maximum (in C1CCCCC1): 518 nm
- emission maximum (in CC#N): 568 nm
Compound: COc1ccc2c(c1)C(=O)c1ccccc1-2

- emission maximum (in ClCCl): 405 nm
Compound: O=Cc1ccc2c(c1)c1ccccc1n2-c1ccc(-c2ccc(-n3c4ccccc4c4cc(C=O)ccc43)cc2)cc1

- emission maximum (in ClCCl): 621 nm
Compound: COCCOCCOCCOCC(COCCOCCOCCOC)Oc1cc(/C=C/c2ccc(/C=C(\C#N)C(=O)c3ccccc3)cc2)c(OC(COCCOCCOCCOC)COCCOCCOCCOC)cc1/C=C/c1ccc(/C=C(\C#N)C(=O)c2ccccc2)cc1

- emission maximum (in ClCCl): 356 nm
Compound: COc1ccc(-c2ncccn2)cc1
